{"source": "patent US20250049930A1", "about": "“PROTAC MOLECULES TARGETING FOXP3 AND USES THEREOF” (CEDARS-SINAI MEDICAL CENTER, priority 2022, published 2025)", "key": {"[1]": {"molecular_target": "ternary complex consisting of cereblon, FoxP3, and P-FoxP3 (Homo sapiens, UniProt Q96SW2+Q9BZS1)", "sequence (Q96SW2 whole entry, one chain of several)": "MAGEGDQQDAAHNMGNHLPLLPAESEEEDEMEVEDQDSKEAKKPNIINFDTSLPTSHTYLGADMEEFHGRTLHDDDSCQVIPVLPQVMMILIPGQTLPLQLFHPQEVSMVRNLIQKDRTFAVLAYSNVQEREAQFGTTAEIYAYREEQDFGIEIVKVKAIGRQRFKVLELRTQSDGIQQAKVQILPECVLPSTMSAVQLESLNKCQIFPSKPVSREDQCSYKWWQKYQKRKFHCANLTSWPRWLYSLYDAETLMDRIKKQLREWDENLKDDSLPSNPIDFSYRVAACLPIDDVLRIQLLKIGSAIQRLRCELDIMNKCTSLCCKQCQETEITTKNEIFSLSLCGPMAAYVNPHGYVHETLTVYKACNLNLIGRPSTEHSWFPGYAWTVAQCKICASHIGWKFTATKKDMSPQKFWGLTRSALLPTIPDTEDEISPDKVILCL", "assay": "SPR assay, ternary complex cooperativity", "type": "binding", "method": "The SPR assay for ternary complex cooperativity was performed by BOC Sciences who provided the following details: Various concentrations of cereblon were dissolved in water and manually printed onto the 47 nm gold-coated PlexArray Nanocapture Sensor Chip (Plexera Bioscience, Seattle, WA) at 40% humidity. Each concentration was printed in replicate, and each spot contained […] of sample solution. The chip was incubated overnight in 80% humidity at 4° C., and rinsed with 10×PBST for 10 minutes, 1×PBST for 10 minutes, and deionized water twice for 10 minutes. The chip was then blocked with 5% non-fat milk in water overnight, washed as before, and then dried under a stream of nitrogen.\nSPR imaging measurements were performed with PlexAray HT (Plexera Bioscience, Seattle, WA, US). Buffers and samples were injected by a non-pulsatile piston pump into the 30 μL flow cell. […] The signal changes after binding and washing (in AU) are recorded as the assay value. Selected protein-grafted regions in the SPR images were analyzed, and the average reflectivity variations of the chosen areas were plotted as a function of time. Real-time binding signals were recorded and analyzed by Data Analysis Module (DAM, Plexera Bioscience, Seattle, WA, US). […]"}, "FoxP3": {"molecular_target": "T1, FoxP3 (Homo sapiens, UniProt Q9BZS1)", "T1 construct": "endogenous in cells; host or cells: human PBMC (CD4+ gated)", "T1 sequence (Q9BZS1 1-431)": "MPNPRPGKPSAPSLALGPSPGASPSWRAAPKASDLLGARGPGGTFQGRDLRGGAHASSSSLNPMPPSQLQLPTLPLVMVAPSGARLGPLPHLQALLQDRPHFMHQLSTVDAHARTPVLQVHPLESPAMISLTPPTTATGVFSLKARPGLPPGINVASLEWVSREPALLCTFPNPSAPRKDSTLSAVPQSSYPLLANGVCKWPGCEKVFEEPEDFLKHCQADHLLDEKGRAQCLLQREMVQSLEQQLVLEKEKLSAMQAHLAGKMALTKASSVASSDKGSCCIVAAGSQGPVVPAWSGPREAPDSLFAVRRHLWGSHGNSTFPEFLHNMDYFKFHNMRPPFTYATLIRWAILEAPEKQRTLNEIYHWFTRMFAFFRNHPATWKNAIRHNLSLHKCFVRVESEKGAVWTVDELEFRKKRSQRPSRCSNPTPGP", "assay": "FoxP3 expression in CD4+ human PBMC, flow cytometry", "type": "cell-based", "settings": "10 μM, 3 days, PMA 10 ng/ml and Ionomycin 2 μg/ml, difference to P60 not significant", "method": "(§1) FIGS. 7A-7C depict that PF decreases FoxP3 and the immunosuppressive function of human CD4+ cells. Human peripheral blood mononuclear cells (PBMC) were treated in vitro with PF (10 μM) or various control drugs (10 μM) for 3 days (FIG. 7A). PMA 10 ng/ml and Ionomycin 2 μg/ml were added during PF treatment to induce FoxP3 (FIG. 7A). Resulting cells were gated on CD4 and assessed for FoxP3 expression by flow cytometry. To treat Tregs, CD4+ PBMC were isolated and treated with PF or various controls for 72 hours. […] CD8 proliferation was measured using a CFSE dilution assay. To assess CD8+ effector cells, CD4 negative splenocytes were CFSE labeled and CFSE dilution was measured in CD8+ cells by flow cytometry (FIG. 7B). In the same experiment, CD8+ cells were assessed for activation by gating on CD8 and assessing IFNγ or TNFα by flow cytometry (FIG. 7C). […]\n(§2) Human peripheral blood mononuclear cells (PBMC) were treated with phorbol 12-myristate 13-acetate (PMA) (10 ng/ml) and Ionomycin (2 μg/ml) to increase FoxP3 expression. […] CD8 proliferation was measured using a CFSE dilution assay. Immune activation was assessed by measuring TNFα or IFNγ in CD8+ or CD4+ T cells using flow cytometry.\n(§3) P60 was designed to bind both mouse and human FoxP3. Therefore, we evaluated PF using human peripheral blood mononuclear cells (PBMC). […] Resulting cells were gated on CD4 and assessed for FoxP3 expression by flow cytometry. […]"}, "Tregs": {"tested_on": "Tregs", "assay": "Treg immunosuppression co-culture assay with human PBMC (CFSE dilution, IFNγ, TNFα)", "type": "cell-based", "settings": "human CD4+ PBMC treated 72 hours (10 μM), co-cultured with CD4− PBMC stimulated with αCD3 and αCD28; difference to P60 significant", "method": "as §1, §2, §3"}}, "note": "Residues, ends and D or L forms follow the SMILES beside them. *: point of attachment. X1 = O=C1CCC(N2C(=O)c3cccc(*)c3C2=O)C(=O)N1; PEG4 = NCCOCCOCCOCCOCCC(=O)O", "data": [{"molecule": "CSCC[C@H](NC(=O)[C@H](C)NC(=O)[C@H](Cc1ccccc1)NC(=O)[C@H](Cc1ccccc1)NC(=O)[C@@H]1CCCN1C(=O)[C@H](Cc1c[nH]c2ccccc12)NC(=O)[C@H](CCSC)NC(=O)[C@H](CCCCN)NC(=O)[C@H](CCCNC(=N)N)NC(=O)[C@H](Cc1ccccc1)NC(=O)[C@H](CO)NC(=O)[C@H](CCC(N)=O)NC(=O)[C@H](Cc1ccccc1)NC(=O)[C@H](CC(=O)O)NC(=O)[C@H](CCCNC(=N)N)NC(=O)CCOCCOCCOCCOCCNc1cccc2c1C(=O)N(C1CCC(=O)NC1=O)C2=O)C(=O)O", "note": "(some centres unmarked) [PF, Pomalidomide-PEG4-RDFQSFRKMWPFFAM] ({X1-PEG4}-RDFQSFRKMWPFFAM-OH)", "values": [{"measurement": "Kd", "setting": "[1]; SPR, cereblon printed on chip, 25° C., complex of cereblon, P-FoxP3 and recombinant FoxP3, read-out: Equilibrium dissociation constant, KD ternary", "result": 434, "unit": "nM"}, {"measurement": "Cooperativity, a=KD binary/KD ternary", "setting": "[1]; a>1 positively cooperative, a=1 non-cooperative, a<1 negatively cooperative", "result": 2.27}, {"measurement": "percent of CD4+ cells expressing FoxP3", "setting": "FoxP3", "result": "decreased the percent of CD4+ cells expressing FoxP3 when compared to control"}, {"measurement": "CD8+ lymphocyte activation as measured by IFNγ or TNFα", "setting": "Tregs", "result": "greatest enhancement of CD8+ lymphocyte activation"}, {"measurement": "CD8+ lymphocyte proliferation (CFSE dilution)", "setting": "Tregs", "result": "highest CD8+ lymphocyte proliferation"}]}]}
